We go through two compounds from patent publication US20110275518A1 (priority 2007, published 2011).

Entries after “also recorded” stand apart in the source; their conditions may differ.

The conditions of data set [1]: prior art teaching; cited from earlier work.
In data set [2] the test system is dry bean (Phaseolus vulgaris L) seeds, cultivar 'Othello'. The experiment in a line: Germination of diseased dry bean seed under bacterial disease pressure (Experiment 1). The data set is classed as in vivo. The source says: The precipitate is recovered by filtration and the powder is dried.
Seeds were placed on blotters in Petri plates, were soaked in an excess of water for 3 days, then drained on day 4. The 3-day period of excess water created extremely high pressure from pathogenic and saprophytic bacteria. This led to a very high bacterial load on the germinating seeds and high disease pressure due to pathogenic, saprophytic and soft-rot bacteria. This disease pressure was so extreme that the germination rates for experiments 2-5 were essentially zero due to being overwhelmed by the disease pressure.

Another data set relates to healthy dry bean seed. Description: Germination of healthy dry bean seed. The data set is classed as in vivo.
The subject of the next data set is pulse seeds. To be noted: 0.1% to 1% aqueous coating; pea, chickpea, lentil, soybean. The source says:
Germination on blotters was scored at 7- and 14-days. Emergence from soil was scored at 21- and 28-days.
To treat seeds, one hundred seeds were placed in a 50-mL Falcon tube and combined with the treatment solution. Seeds were mixed with the treatment for 5-min by gently rolling and inverting the Falcon tube. Coated seeds were placed in an open Petri plate for 30-min to dry. Seeds were sown 10-per pot, set in a greenhouse, and maintained under standard conditions with mercury lamp lighting supplementing daylight from 3:00 pm to 10:00 pm.
Place 100-seeds into a 50-mL Falcon tube and add 1-mL of treatment solution. Gently roll and invert the tube for 5 min to evenly coat each seed without causing damage. Remove seeds from tube by pouring carefully into an empty Petri plate. Leave exposed (lid off) and air dry seeds for 30 min.
(1) Germination: Place 50 seeds from each treatment onto 25 individual moistened blotters in large Petri plates. Incubate at room temperature for 2-weeks with or without light. Score germination at 7- and 14-days. (2) Emergence: Sow 50 seeds from each treatment into five pots (10-seeds per pot and five pots per treatment). Place in a greenhouse at 22° C. with ample air circulation. Use mercury lamps to supplement lighting (on at 3:00 pm-off at 10:00 pm) if necessary. For pre-emergent plants, water pots as needed to keep soil moist but not wet. Water emergent plants daily. […]

As for `O=[N+]([O-])[O-].[Ag+]` [silver nitrate], in data set [1], the phytotoxicity entry was “phytotoxic”.
Turning to oxysilver nitrate [high valency silver], the “phytotoxicity / effect on germination of dry bean seeds” value in data set [2] (0.1% to 1% treatments, days needed to reach 25% germination) is listed as “no negative effects on germination; also recorded: no phytotoxic effect on germinating seeds”. In addition, the “increase in germination compared with the negative control (sterile water)” value in data set [2] (1% treatment, by day 10) amounted to 34.7%. Besides, the “Day to 50% germination” value in the data set on healthy dry bean seed (1%) and in the data set with healthy dry bean seed ([…]) was 5.0 days throughout. The “effect on germination of pulse seeds” value in the data set with pulse seeds is recorded as “no negative effects on germination of any pulse seed”.
